One assay deals with ETAR. The conditions noted are these: competitive antagonist; ref [36]; cited from earlier work.
A further assay deals with ETBR. The conditions noted are these: competitive antagonist; ref [36]; cited from earlier work.
The subject of a further assay is ETBR-GFP. Briefly: Ca2+ flux, COS-7, ETBR-GFP co-transfected with other GPCRs. The assay is classed as cell-based. The conditions noted are these: mock+sitaxentan vs mock+vehicle (no ETAR expression). A general note: A change in cytosolic calcium serves as a functional read-out for many receptors and channels.
A further assay concerns Cys-P1-tagged GPCR. Kind of assay: peptide-templated labeling of Cys-P1-tagged GPCRs in live HEK293 cells. The assay is classed as cell-based. The conditions noted are these: n=3; for fluorescent labeling: Cys-P1-ETAR-GFP, 200 nM probe.
Another assay relates to Cys-P3-tagged GPCR. Briefly: peptide-templated labeling of Cys-P3-tagged GPCRs in live HEK293 cells. The assay is classed as cell-based. The conditions noted are these: n=3; for fluorescent labeling: 200 nM probe.

For orientation: IC50 means the concentration at which inhibition is half-maximal. With `Cc1cc2c(cc1CC(=O)c1sccc1S(=O)(=O)Nc1onc(C)c1Cl)OCO2` [sitaxentan], the IC50 in the assay with ETAR is roughly 0.001 µM; in the assay on ETBR, roughly 10 µM. For the same compound, the “effect on ET-1 efficacy and potency at ETBR” value in the assay with ETBR-GFP is “No differences in both ligand efficacy and potency”.
As for “KIAQLKE KNAALKE KNQQLKE KIQALKY [TAMRA‐P2, 6‐carboxytetramethyl‐rhodamine (TAMRA)‐P2]”, the fluorescent labeling result in the assay on Cys-P1-tagged GPCR is “successfully labeled”. The “labeling with complementary probe” value with Cys-P1-tagged GPCR (Cys-P1-ETBR-GFP) was “Rapid TAMRA staining within 5 min”. In the assay on Cys-P3-tagged GPCR (Cys-P3-ETAR-GFP with non-complementary probe), the cross-reactivity labeling result is recorded as “no successful TAMRA labeling was detectable”.
For the compound “KIAQLKQ KIQALKQ ENQQLEE ENAALEY [TAMRA‐P4]”, the cross-reactivity labeling result with Cys-P1-tagged GPCR (Cys-P1-ETBR-GFP with non-complementary probe) is given as “no successful TAMRA labeling was detectable”. In the assay with Cys-P3-tagged GPCR (Cys-P3-ETAR-GFP), the fluorescent labeling entry is given as “successfully labeled” and the “labeling with complementary probe” value is on record as “Rapid TAMRA staining within 5 min”.
For TAMRA‐MPAA‐GSGSG, the fluorescent labeling entry in the assay on Cys-P1-tagged GPCR and with Cys-P3-tagged GPCR (Cys-P3-ETAR-GFP) was “no labeling of GFP‐positive cells was detectable” in each case.

The record behind these values is paper PMC9298254 (Chembiochem, 2021).
